# Marks after values point to notes of the source that are not given here.
# Legend:
# Male Sprague-Dawley rats = assay: Gastric tolerability (safety); format: in vivo; conditions: 24 h, lesion scale 0 = absent to 4 = severe and numerous ulcers
# Experimental: Male Sprague-Dawley rats fasted for 24 hours were treated with 5 to 10 mg/kg of intraperitoneal hydrocortisone or HCN.
# Twenty-four hours later the animals were sacrified, the stomach was removed and tissue was grossly examined for the presence of lesions as described by Del Soldato et al.: “The influence of fasting and cimetidine on the relationship between ulcerogenic and anti-inflammatory properties of […]”, Br.J.Pharmacol. 67, 33-37, 1979. The degree of severity of the disease was evaluated according to common methods and expressed as arbitrary values.
# [1] = test system: conscious Long Evans rats; assay: Cardiovascular parameters in conscious rats; format: in vivo; conditions: 10 mg/kg s.c., 4 h after treatment; for BLOOD PRESSURE: compared to vehicle group (101 ± 2 mm Hg); for HEART RATE (%): compared to vehicle group (324 ± 7 beats per minute)
# Experimental: The effect of the test products on some cardiovascular parameters was studied in conscious Long Evans rats (350 to 450 g) which were appropriately monitored, as described by Gardiner et al.: “Influence of dexamethasone on the regional haemodynamic responses to lipopolysaccharide in conscious rats: effect of the non-selective endothelin antagonist: SB 209670”, Br.J. Pharmacology 117, 49P, 1996. The animals were treated with the vehicle (physiologic saline solution, 0,9% sodium chloride, s.c.) subcutaneous hydrocortisone or HCN (10 mg/kg). Heart rate and blood pressure were recorded 4 hours after treatment.
# nitroxysynthetase = assay: LPS-induced nitroxysynthetase activity in rat neutrophils and stomach; format: in vivo, rats; conditions: 10 mg/kg i.p., LPS 5 mg/kg i.v., 4 h; compared to vehicle group (vehicle = 100)
# mice of the Swiss strain = assay: Acute toxicity study, single oral dose; format: in vivo; conditions: single oral dose 50 mg/kg, 10 Swiss mice, 14 days observation
# Excerpt: The acute toxicity of the product from Example 1A was roughly evaluated by orally administering a single dose of substance to a group of 10 mice of the Swiss strain.
# Death incidence and appearance of toxic symptoms were observed during a period of 14 days after the compound administration.
# [2] = test system: male rats of Lewis strain; assay: Antiarthritic activity, adjuvant arthritis induced by Mycobacterium butyricum; format: in vivo; conditions: day 21, inhibition of arthritis score vs vehicle group
# Male Wistar rats = assay: Angiostatic activity, rat sponge model, 133Xe clearance; format: in vivo; conditions: for SPLEEN weight / THYMUS weight: 10 mg/kg s.c. day 1 to 13, day 14; for 133Xe clearance (%): 10 mg/kg s.c. day 1 to 13, measured at day 14, clearance for 6 minutes as % of initial value
# [3] = test system: parietal bone from rat foetus; assay: Bone toxicity, bone tissue grown in vitro; format: cell-based; conditions: 10 nmol (table), 96 h incubation, compared to initial value
# Experimental: Bone tissues (parietal bone from rat foetus) grown in vitro according to the method described by Doherty et al. (“The effect of glucocorticoids on osteoblast function. The effect of corticosterone on osteoblast, expression of beta-I integrins”, Journal of Bone and Joint Surgery, Series A77/3, 396-404, 1995) was used. […]
# Ninety six hours later calcium content and bone dry weight were measured.
SMILES,GASTRIC TOLERABILITY (Male Sprague-Dawley rats; 5 mg/kg i.p.),GASTRIC TOLERABILITY (Male Sprague-Dawley rats; 10 mg/kg i.p.),BLOOD PRESSURE [1],HEART RATE (%) [1],NITROXYSYNTHETASE ACTIVITY (nitroxysynthetase),Acute toxicity (death incidence and toxic symptoms) (mice of the Swiss strain),ANTIARTHRITIC ACTIVITY (%) ([2]; 5 mg/kg i.p.),ANTIARTHRITIC ACTIVITY (%) ([2]; 10 mg/kg i.p.),SPLEEN weight (Male Wistar rats) [mg],THYMUS weight (Male Wistar rats) [mg],133Xe clearance (%) (Male Wistar rats),Calcium Δ% [3],DRY TISSUE WEIGHT Δ% [3]
"C[C@]12CCC(=O)C=C1CC[C@@H]1[C@@H]2[C@@H](O)C[C@@]2(C)[C@H]1CC[C@]2(O)C(=O)COC(=O)CCCO[N+](=O)[O-] [HCN, Hydrocortisone 4-Nitroxybutanoate]",0.5* arbitrary values,1.2* arbitrary values,103 per-cent,98%,62* per cent,no sign of apparent toxicity,45,62,673 ± 38,297 ± 31,22* %,287%,149%
"C[C@]12CCC(=O)C=C1CC[C@@H]1[C@@H]2[C@@H](O)C[C@@]2(C)[C@H]1CC[C@]2(O)C(=O)CO [HYDROCORTISONE, hydrocortisone, reference compound]",2.0 arbitrary values,3.5 arbitrary values,115* per-cent,89* %,55* per cent,–,40,55,642 ± 32,185 ± 17,33%,70° %,95° %
